Here are results for nine molecules from PubChem BioAssay AID190 (DTP/NCI, 2004).

Inconclusive results and toxic doses are left out.

The subject of this assay is AKR/Lw mice, AKR lymphoma ip, median survival T/C. Description: NCI In Vivo Anticancer Drug Screen. Data for tumor model Lymphoma AKR (Transplanted) (intraperitoneal) in AKR/Lw mice. Conditions: endpoint: median survival time, higher = longer survival. The protocol:
The antitumor activity of compounds was measured in mice bearing transplantable tumors. Survival or tumor size were measured and the results are expressed as the measurement made in the treated group (T) divided by the measurement made in the vehicle treated control group (C). The tumor model used in this assay is Lymphoma AKR (Transplanted) (intraperitoneal) in AKR/Lw mice

Where [1] appears, read: dose: 100.0 mg/kg/injection, schedule: Q01DX001 (ip), vehicle: Klucel (hydroxypropylcellulose) (HPC).
[2] abbreviates: dose: 200.0 mg/kg/injection, schedule: Q01DX001 (ip), vehicle: Klucel (hydroxypropylcellulose) (HPC).
The mark [3] stands for this setting: dose: 400.0 mg/kg/injection, schedule: Q01DX001 (ip), vehicle: Klucel (hydroxypropylcellulose) (HPC).
The mark [4] stands for this setting: dose: 100.0 mg/kg/injection, schedule: Q01DX001 (ip), vehicle: saline.
Where [5] appears, read: dose: 200.0 mg/kg/injection, schedule: Q01DX001 (ip), vehicle: saline.
[6] abbreviates: dose: 25.0 mg/kg/injection, schedule: Q01DX001 (ip), vehicle: saline.
Setting [7] is: dose: 50.0 mg/kg/injection, schedule: Q01DX001 (ip), vehicle: saline.

Regarding `CC(C)(C)/[N+]([O-])=[N+](\[O-])C(C)(C)C` (tested in a mixture with another compound), the T/C runs as follows: under setting [1], 95 % of control; under setting [2], 97 % of control; under setting [3], 100 % of control.

Take `COc1cc2ccc(C(C)N)cc2cc1OC` (centres undefined): the T/C is, setting by setting: (dose: 50.0 mg/kg/injection, schedule: Q04DX003 (ip), vehicle: saline) 105 % of control; under setting [4], 98 % of control; (dose: 100.0 mg/kg/injection, schedule: Q04DX003 (ip), vehicle: saline) 102 % of control; under setting [5], 100 % of control; (dose: 200.0 mg/kg/injection, schedule: Q04DX003 (ip), vehicle: saline) 95 % of control.

`N[C@@H](Cc1ccc(N(CCCl)CCCl)cc1)C(=O)O`: the T/C (dose: 0.25 mg/kg/injection, schedule: Q04DX008 (ip), vehicle: Klucel (hydroxypropylcellulose) (HPC)) is 102 % of control; the T/C (dose: 0.5 mg/kg/injection, schedule: Q04DX008 (ip), vehicle: Klucel (hydroxypropylcellulose) (HPC)) was 94 % of control; the T/C (dose: 0.75 mg/kg/injection, schedule: Q04DX008 (ip), vehicle: Klucel (hydroxypropylcellulose) (HPC)) is 119 % of control; the T/C (dose: 1.0 mg/kg/injection, schedule: Q04DX004 (ip), vehicle: Klucel (hydroxypropylcellulose) (HPC)) was 123 % of control; the T/C (dose: 1.0 mg/kg/injection, schedule: Q04DX004 (ip), vehicle: saline) was 115 % of control; the T/C (dose: 1.0 mg/kg/injection, schedule: Q04DX008 (ip), vehicle: Klucel (hydroxypropylcellulose) (HPC)) is 100 % of control. The T/C (dose: 2.0 mg/kg/injection, schedule: Q04DX004 (ip), vehicle: Klucel (hydroxypropylcellulose) (HPC)) is 158 % of control; the T/C (dose: 2.0 mg/kg/injection, schedule: Q04DX004 (ip), vehicle: saline) was 107 % of control; the T/C (dose: 2.0 mg/kg/injection, schedule: Q04DX008 (ip), vehicle: Klucel (hydroxypropylcellulose) (HPC)) was 116 % of control; the T/C (dose: 2.5 mg/kg/injection, schedule: Q01DX001 (ip), vehicle: Klucel (hydroxypropylcellulose) (HPC)) was 107 % of control; the T/C (dose: 3.9 mg/kg/injection, schedule: Q04DX004 (ip), vehicle: Klucel (hydroxypropylcellulose) (HPC)) was 179 % of control; the T/C (dose: 3.9 mg/kg/injection, schedule: Q04DX004 (ip), vehicle: saline) is 307 % of control. Besides, the T/C (dose: 6.0 mg/kg/injection, schedule: Q04DX004 (ip), vehicle: Klucel (hydroxypropylcellulose) (HPC)) was 200 % of control; the T/C (dose: 6.0 mg/kg/injection, schedule: Q04DX004 (ip), vehicle: saline) is 164 % of control; the T/C (dose: 7.7 mg/kg/injection, schedule: Q04DX008 (ip), vehicle: Klucel (hydroxypropylcellulose) (HPC)) was 100 % of control; the T/C (dose: 9.0 mg/kg/injection, schedule: Q01DX001 (ip), vehicle: Klucel (hydroxypropylcellulose) (HPC)) is 150 % of control; the T/C (dose: 12.0 mg/kg/injection, schedule: Q01DX001 (ip), vehicle: Klucel (hydroxypropylcellulose) (HPC)) is 102 % of control; the T/C (dose: 16.0 mg/kg/injection, schedule: Q01DX001 (ip), vehicle: Klucel (hydroxypropylcellulose) (HPC)) is 92 % of control.

For `CC1(C)N=C(N)N=C(N)N1c1cc(Cl)ccc1Cl`, the T/C is 93 % of control under setting [6] and 93 % of control under setting [7].

`COc1ccc(COC(=O)CN2C(=O)c3ccccc3C2=O)cc1`: the T/C was 97 % of control under setting [1], 100 % of control under setting [2] and 113 % of control under setting [3].

Consider `CCn1c(O)c(C=N)c(=O)n(CC)c1=O`, for which the T/C is, setting by setting: (dose: 12.0 mg/kg/injection, schedule: Q01DX001 (ip), vehicle: saline) 97 % of control; (dose: 12.5 mg/kg/injection, schedule: Q04DX003 (ip), vehicle: Klucel (hydroxypropylcellulose) (HPC)) 100 % of control; under setting [6], 111 % of control; (dose: 25.0 mg/kg/injection, schedule: Q04DX003 (ip), vehicle: Klucel (hydroxypropylcellulose) (HPC)) 93 % of control; under setting [7], 94 % of control; (dose: 50.0 mg/kg/injection, schedule: Q04DX003 (ip), vehicle: Klucel (hydroxypropylcellulose) (HPC)) 97 % of control.

For the molecule `O=C(/C=C/C(=O)Oc1ccc(Cl)cc1)Oc1ccc(Cl)cc1`, the T/C runs as follows: under setting [1], 92 % of control; under setting [2], 89 % of control; under setting [3], 107 % of control.

As for `Cc1cc(NS(=O)(=O)c2ccc(N)cc2)no1`, the T/C by setting is: under setting [4], 110 % of control; (dose: 100.0 mg/kg/injection, schedule: Q04DX003 (ip), vehicle: other) 95 % of control; under setting [5], 103 % of control; (dose: 200.0 mg/kg/injection, schedule: Q04DX003 (ip), vehicle: other) 95 % of control; (dose: 400.0 mg/kg/injection, schedule: Q01DX001 (ip), vehicle: saline) 96 % of control; (dose: 400.0 mg/kg/injection, schedule: Q04DX003 (ip), vehicle: other) 95 % of control.

Consider `O=C(COc1ccc(Cl)c(Cl)c1)N(Cc1ccccc1)Cc1cccnc1`, for which the T/C is 110 % of control under setting [1], 108 % of control under setting [2] and 102 % of control under setting [3].
